These results are taken from PMC12191924, “A new naphthalene-based fluorogenic substrate for cytochrome P450 4A11” (Biochemical Journal, 2025).

Structures are written as SMILES. Where only a bound is given, the exact number is not on record here.

For this assay, the target named is T1, pooled human liver microsome (HLM) preparations (Homo sapiens, UniProt Q02928).
T1 sequence (Q02928 5-519): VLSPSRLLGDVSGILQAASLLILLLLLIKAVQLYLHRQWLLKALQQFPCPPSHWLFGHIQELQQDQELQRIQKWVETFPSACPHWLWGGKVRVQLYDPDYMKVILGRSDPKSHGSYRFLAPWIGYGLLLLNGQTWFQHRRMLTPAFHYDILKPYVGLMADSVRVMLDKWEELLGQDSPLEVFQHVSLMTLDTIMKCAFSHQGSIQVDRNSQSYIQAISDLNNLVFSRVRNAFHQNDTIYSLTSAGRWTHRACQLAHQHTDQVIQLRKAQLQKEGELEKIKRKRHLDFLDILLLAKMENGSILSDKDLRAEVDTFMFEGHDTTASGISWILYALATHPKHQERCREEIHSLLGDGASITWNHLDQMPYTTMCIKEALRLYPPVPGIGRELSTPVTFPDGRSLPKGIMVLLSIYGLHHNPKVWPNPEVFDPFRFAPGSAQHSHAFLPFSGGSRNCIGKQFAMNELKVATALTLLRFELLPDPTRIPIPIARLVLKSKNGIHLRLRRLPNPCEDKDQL
The assay can be described thus: Inhibition of MONACRA demethylation in pooled HLM preparations. The class given is biochemical. To be noted: all studied HLM samples; from inhibitory analysis with epalrestat. The text has this:
To probe the role of CYP4A11 and CYP1A2 in MONACRA metabolism by HLM, we employed inhibitory analysis with the use of epalrestat as a specific inhibitor of CYP4A11 [22] and fluvoxamine as a CYP1A2 inhibitor [37]. We explored the effect of the inhibitors on the activity of recombinant CYP1A2 and CYP4A11, as well as the activity of six different preparations of HLM (preparation X347 was not available at the time of the study).
Figure 12: Effect of epalrestat (A) and fluvoxamine (B) on 3-(6-methoxynaphthalen-2-yl)acrylic acid (MONACRA) demethylation by recombinant CYP1A2 (black) and CYP4A11 (red) and three pooled human liver microsome (HLM) preparations: X263 (green), DNJ (blue), and WGP (brown). Solid lines represent the approximation of the datasets by eqn 1 (in the instances of pure inhibition) or a combination of two hyperbolic equations (in the cases of activation or combined inhibition and activation). All experiments were carried out at 150 µM MONACRA concentration. The datasets shown in the graphs represent the averages of the results of four (fluvoxamine) or two (epalrestat) individual experiments.
This study used preparations of pooled HLMs from 50, 150, or 200 donors (mixed gender). The preparations CDN, DNJ, and WGP were INVITROCYP 150-Donor Human Liver Microsomes obtained from BioIVT Corporation (Westbury, NY). Lot EGW is INVITROCYP M-Class 50-Donor HLM procured from the same company. Lots 1,910,096 and 1,210,347 were XTreme 200 Mixed Gender HLM (200 donors) purchased from XenoTech LLC (Kansas City, KS), currently a part of BioIVT. Lot 2,110,263 corresponds to mixed gender HLM from 50 donors from the same company. These lots are referred to herein as X096, X347, and X263, respectively. The supplier of the HLM preparations used in our studies, BioIVT Corporation, has declared to adhere to the regulations of the Department of Health and Human Services for the protection of human subjects (45 CFR §46.116 and §46.117) and Good Clinical Practice, (ICH E6) in obtaining the samples of human tissues used for producing the preparations of human subcellular fractions available from these companies.
Inhibition of MONACRA metabolism by epalrestat and fluvoxamine was studied using the high-throughput assay described above. The substrate concentration was kept constant at 150 µM. Each column of the well plate comprised eight wells with different concentrations of inhibitor complemented with two wells with no inhibitor added (100% activity samples) and two wells with no inhibitor and no NADPH added (‘blank’ samples). […] The fractional inhibition at each inhibitor concentration was determined from the ratio of the reaction rate in the presence of an inhibitor to the rate observed at no inhibitor added. The resulting dependence of the fractional inhibition on the inhibitor concentration was fitted to a four-parameter logistic equation (Hill equation):
(1) FI=v0−vi/v0=Amax[I]^N/IC50+[I]^N
In this equation, F I and vi are the fractional inhibition and the reaction velocity observed at inhibitor concentration [I], v0 is the reaction rate at no inhibitor added, and A max is the maximal amplitude of inhibition. IC 50 is the concentration of inhibitor at which the inhibition reaches 50% of its maximal amplitude (A max), and N is the Hill coefficient.

As to `COc1ccc2cc(C=CC(=O)O)ccc2c1` [MONACRA, 3-(6-methoxynaphthalen-2-yl)acrylic acid], the “share of MONACRA demethylation for which CYP4A11 is responsible” value was more than 93%.
